Source: ChEMBL document CHEMBL1201862, “PubChem BioAssay data set” (2004)
Activity calls are given as the source filed them.

Experiments:
[1] = Luminescence Cell-Based Dose Retest to Confirm Inhibitors of Cancer Stem Cells. [Related pubchem assays (depositor defined):AID2717, AID2721]; format: functional; settings: Homo sapiens
BJ [2] = test: BJ-TERT-LT-ST fibroblast viability loss – cell-based, RAS-independent, luminescence, dose response (AID 1935); format: functional; settings: Homo sapiens;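 further: BJ fibroblasts immortalized with TERT plus LT and ST oncogenes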
BJ [3] = test: growth inhibition of engineered Ras-driven BJ cells – cell-based, alamar blue fluorescence, cherrypicked samples, dose response (AID 2631); format: functional; settings: Homo sapiens;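 further: confirmatory dose-response assay in RAS-dependent BJ fibroblasts engineered with TERT, LT and ST, with cytotoxicity read by fluorescence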
BJ [4] = test: BJ-TERT fibroblast viability loss – cell-based, RAS-independent, luminescence, dose response (AID 1933); format: functional; settings: Homo sapiens
BJ [5] = test: cells; format: functional, cell-based; settings: Homo sapiens
[6] = DRD fibroblast viability loss – cell-based, non-viral oncogenic, luminescence, dose response (AID 1934); format: functional; settings: Homo sapiens
INS1 = test: INS-1E survival protection against cytokine death – cell-based, luminescence, retest, dose response (AID 449756); format: functional; settings: Rattus norvegicus;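 further: cell death triggered by IL-1 beta plus TNF-alpha plus IFN-gamma mixture; protective hits raise ATP signal compared with cytokine alone wells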
[7] = target: T1, Nuclear receptor subfamily 0 group B member 1 (Homo sapiens, UniProt P51843); test: Luminescence-based cell-based high throughput dose response assay for inhibitors of the orphan nuclear receptor subfamily 0, group B, member 1 (DAX1; NR0B1). [Related pubchem assays (depositor defined):AID504766, AID504790]; format: functional
T1 sequence (P51843 whole entry): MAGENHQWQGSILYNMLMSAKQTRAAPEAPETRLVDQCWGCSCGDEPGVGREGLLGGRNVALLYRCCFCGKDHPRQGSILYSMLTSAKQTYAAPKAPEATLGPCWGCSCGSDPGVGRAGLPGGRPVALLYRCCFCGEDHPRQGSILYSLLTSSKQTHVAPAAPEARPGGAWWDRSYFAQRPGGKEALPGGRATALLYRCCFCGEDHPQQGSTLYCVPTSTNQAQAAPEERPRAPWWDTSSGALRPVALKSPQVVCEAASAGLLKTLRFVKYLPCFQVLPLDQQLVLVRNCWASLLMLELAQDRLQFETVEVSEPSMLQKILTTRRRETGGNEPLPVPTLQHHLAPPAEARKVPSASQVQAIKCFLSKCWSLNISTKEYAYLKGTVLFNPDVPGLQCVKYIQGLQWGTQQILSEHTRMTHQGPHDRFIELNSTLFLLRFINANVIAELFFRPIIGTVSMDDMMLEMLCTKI

HEK293 = test: cells; format: functional, cell-based; settings: Homo sapiens
fMet-Leu-Phe receptor = target: T2, fMet-Leu-Phe receptor (Homo sapiens, UniProt P21462); test: formyl peptide receptor binders – dose response (AID 519); format: functional
T2 sequence (P21462 whole entry): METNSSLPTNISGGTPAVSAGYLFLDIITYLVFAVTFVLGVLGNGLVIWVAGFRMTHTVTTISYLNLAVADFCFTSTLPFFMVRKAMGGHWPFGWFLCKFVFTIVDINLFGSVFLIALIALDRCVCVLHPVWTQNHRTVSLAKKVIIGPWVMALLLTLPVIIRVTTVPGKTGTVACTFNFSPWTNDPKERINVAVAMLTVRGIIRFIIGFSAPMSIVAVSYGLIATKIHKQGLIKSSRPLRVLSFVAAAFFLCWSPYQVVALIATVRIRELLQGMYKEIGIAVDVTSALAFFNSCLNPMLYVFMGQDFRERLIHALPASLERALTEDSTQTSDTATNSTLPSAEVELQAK

[8] = bead-based luminescence quenchers, dual-tagged ARNT – biochemical, AlphaScreen, cherry-pick, artefact control for ARNT-TACC3 interaction inhibitor project, dose response (AID 651705); format: functional;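 further: AlphaScreen bead proximity signal that flags compounds interfering with the detection technology; potency reflects signal decrease which marks the compound as an assay artifact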
Nonstructural protein 1 = Nonstructural protein 1 (Influenza A virus, UniProt Q194T2); format: functional, Influenza A virus (A/California/07/2009(H1N1))
cells = format: functional
Cysteine protease ATG4B = target: T3, Cysteine protease ATG4B (Homo sapiens, UniProt Q9Y4P1); format: functional;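 further: Fluorescence-based dose-response confirmation assay measuring inhibition of ATG4B activity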
T3 sequence (Q9Y4P1 whole entry): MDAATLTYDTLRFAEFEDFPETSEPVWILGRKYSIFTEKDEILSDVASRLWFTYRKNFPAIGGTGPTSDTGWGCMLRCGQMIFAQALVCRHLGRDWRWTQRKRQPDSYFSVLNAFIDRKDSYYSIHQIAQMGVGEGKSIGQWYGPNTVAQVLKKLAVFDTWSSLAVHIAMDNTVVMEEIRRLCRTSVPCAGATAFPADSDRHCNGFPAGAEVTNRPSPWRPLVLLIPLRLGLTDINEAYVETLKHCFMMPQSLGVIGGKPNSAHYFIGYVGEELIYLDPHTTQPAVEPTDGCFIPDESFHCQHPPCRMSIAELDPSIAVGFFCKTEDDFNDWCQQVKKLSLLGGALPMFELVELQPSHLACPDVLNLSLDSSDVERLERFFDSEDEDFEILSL

Phospholipase A2 = Phospholipase A2 (Homo sapiens, UniProt P04054); format: functional;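 further: confirmatory dose-response counterscreen on phospholipase A2, testing hits that came from an ultra-high-throughput screen for ATG4B inhibitors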
[9] = target: T4, Low molecular weight phosphotyrosine protein phosphatase (Homo sapiens, UniProt P24666); format: functional; settings: read-out: IC50_Mean;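 further: Dose-response confirmation assay measuring inhibition of LMPTP enzyme activity by fluorescence intensity read-out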
T4 sequence (P24666 whole entry): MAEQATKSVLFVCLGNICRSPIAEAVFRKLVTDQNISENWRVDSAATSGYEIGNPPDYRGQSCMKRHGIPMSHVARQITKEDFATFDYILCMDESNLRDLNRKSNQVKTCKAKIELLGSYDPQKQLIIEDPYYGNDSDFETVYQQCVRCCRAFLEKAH

Fatty acid synthase [10] = target: T5, Fatty acid synthase (Homo sapiens, UniProt P49327); test: inhibition of human FAS-TE enzyme activity – biochemical, endpoint fluorescence intensity, uHTS hits, dose response (AID 624327); format: functional;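 further: fluorescence from hydrolysis of an O-methyl fluorescein acyl ester substrate by the enzyme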
Fatty acid synthase [11] = target: T5, Fatty acid synthase; test: inhibition of human FAS-TE enzyme activity – biochemical, kinetic fluorescence intensity, dose response (AID 624326); format: functional;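 further: rate of fluorescence rise from hydrolysis of a fluorogenic O-methyl fluorescein ester substrate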
[12] = microbe, parasite or virus in culture; format: functional; settings: Mycobacterium tuberculosis
[13] = activation of miR-122 Renilla sensor silencing – cell-based, Huh7 psiCHECK-miR122, Renilla luciferase, cherry-picked, dose response (AID 651956); format: functional;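 further: huh7 hepatoma cells stably carrying a psiCHECK-2 miR-122 sensor plasmid; renilla luciferase signal reporting endogenous miR-122 activity after 48 h compound exposure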
[14] = general mammalian cell viability loss – inhibitor set, cherry-pick, set 2, cytotoxicity control for miR-122 modulator project, dose response (AID 720697); format: functional, cell-based
Beta-galactosidase = Beta-galactosidase (Escherichia coli, UniProt Q8VNN2); test: Dose response counterscreen for EBI2 assay utilizing the enzyme, b-galactosidase.; format: functional
[15] = target: T6, Polyadenylate-binding protein 1 (Homo sapiens, UniProt P11940); test: MLLE domain peptide-binding blockers, IC50 – biochemical, fluorescence polarization, FITC-PAM2 peptide, dose response (AID 602259); format: functional; settings: read-out: IC50_Mean
Estrogen receptor beta [16] = target: T7, Estrogen receptor beta (Homo sapiens, UniProt Q92731); test: blockers of SRC-3 recruitment to ERβ – biochemical, ELISA, streptavidin-HRP readout, orthogonal assay, confirmation (AID 1060)
[17] = target: T6, Polyadenylate-binding protein 1; test: MLLE binding blockers, Cy5 peptide tracer – biochemical, fluorescence polarization, Cy5-PAM2 peptide, secondary, miRNA deadenylation inhibitor project, dose response (AID 602260); format: functional; settings: read-out: IC50_Mean
Estrogen receptor beta [18] = target: T7, Estrogen receptor beta
[19] = viability of uninfected HEp-2 cells – cell-based, HTS, cytotoxicity control for RSV inhibitor project, dose response (AID 2410); format: functional; settings: human respiratory syncytial virus
[20] = target: Heat shock protein HSP 90-alpha (Homo sapiens, UniProt P07900); format: functional, organism-based
[21] = Trypanosoma cruzi growth suppression in host cells – NIH3T3 host cells, beta-gal luminescence, confirmation (AID 2044); format: functional, cell-based;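 further: intracellular parasites grown in NIH/3T3 mouse fibroblasts as host cells; luminescent beta-galactosidase reporter signal from transgenic T. cruzi replicating inside host cells; inhibitors lower the luminescence signal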
[22] = NIH3T3 cell viability loss – ATP luminescence, mouse fibroblasts, counter-screen, dose response (AID 2010); format: functional, cell-based;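 further: cells exposed to compound for about 90 hours before reading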
HT-1080 = test: HT1080 cell viability loss – fluorescence readout (AID 620); format: functional, cell-based; settings: Homo sapiens
Melanocortin receptor 4 = Melanocortin receptor 4 (Homo sapiens, UniProt P32245); format: functional, cell-based;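 further: Cell-based assay with luminescence read-out, confirmatory dose-response testing for agonist activity of biased ligands at MC4R; human U2OS cells with tagged receptor and beta-arrestin; potency of agonists that increase receptor coupling to beta-arrestin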

Sequence of Phospholipase A2 (P04054 whole entry): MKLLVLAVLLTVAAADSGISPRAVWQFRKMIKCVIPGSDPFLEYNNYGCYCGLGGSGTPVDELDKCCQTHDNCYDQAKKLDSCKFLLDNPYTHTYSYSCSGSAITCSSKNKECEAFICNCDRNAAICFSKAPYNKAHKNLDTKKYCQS
Sequence of Beta-galactosidase (Q8VNN2 whole entry, the tested form may be a part): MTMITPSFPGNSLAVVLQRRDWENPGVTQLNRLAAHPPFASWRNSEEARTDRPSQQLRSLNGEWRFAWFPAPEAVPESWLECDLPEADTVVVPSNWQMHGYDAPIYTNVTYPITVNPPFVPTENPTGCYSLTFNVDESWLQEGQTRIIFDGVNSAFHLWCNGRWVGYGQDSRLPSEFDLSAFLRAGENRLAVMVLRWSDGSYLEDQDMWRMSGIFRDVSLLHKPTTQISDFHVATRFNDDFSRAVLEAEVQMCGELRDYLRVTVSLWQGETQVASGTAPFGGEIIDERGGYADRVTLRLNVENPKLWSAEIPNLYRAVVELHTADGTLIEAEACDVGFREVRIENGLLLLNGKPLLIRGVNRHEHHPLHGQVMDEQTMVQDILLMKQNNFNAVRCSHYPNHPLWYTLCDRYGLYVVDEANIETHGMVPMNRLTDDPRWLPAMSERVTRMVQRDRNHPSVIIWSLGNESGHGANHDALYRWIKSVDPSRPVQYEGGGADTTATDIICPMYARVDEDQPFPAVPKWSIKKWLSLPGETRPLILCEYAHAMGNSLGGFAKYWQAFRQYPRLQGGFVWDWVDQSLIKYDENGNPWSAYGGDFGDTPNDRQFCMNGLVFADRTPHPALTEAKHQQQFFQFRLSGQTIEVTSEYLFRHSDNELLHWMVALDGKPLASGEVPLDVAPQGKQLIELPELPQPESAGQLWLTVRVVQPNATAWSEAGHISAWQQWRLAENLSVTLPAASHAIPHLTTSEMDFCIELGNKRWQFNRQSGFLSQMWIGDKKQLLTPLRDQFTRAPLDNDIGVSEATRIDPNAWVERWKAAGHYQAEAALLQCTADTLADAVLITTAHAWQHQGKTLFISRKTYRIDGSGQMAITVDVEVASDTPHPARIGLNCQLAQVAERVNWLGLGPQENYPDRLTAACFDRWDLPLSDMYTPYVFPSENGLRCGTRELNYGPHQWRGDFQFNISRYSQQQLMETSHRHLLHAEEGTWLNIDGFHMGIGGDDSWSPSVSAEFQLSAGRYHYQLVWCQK
T5 sequence (P49327 whole entry): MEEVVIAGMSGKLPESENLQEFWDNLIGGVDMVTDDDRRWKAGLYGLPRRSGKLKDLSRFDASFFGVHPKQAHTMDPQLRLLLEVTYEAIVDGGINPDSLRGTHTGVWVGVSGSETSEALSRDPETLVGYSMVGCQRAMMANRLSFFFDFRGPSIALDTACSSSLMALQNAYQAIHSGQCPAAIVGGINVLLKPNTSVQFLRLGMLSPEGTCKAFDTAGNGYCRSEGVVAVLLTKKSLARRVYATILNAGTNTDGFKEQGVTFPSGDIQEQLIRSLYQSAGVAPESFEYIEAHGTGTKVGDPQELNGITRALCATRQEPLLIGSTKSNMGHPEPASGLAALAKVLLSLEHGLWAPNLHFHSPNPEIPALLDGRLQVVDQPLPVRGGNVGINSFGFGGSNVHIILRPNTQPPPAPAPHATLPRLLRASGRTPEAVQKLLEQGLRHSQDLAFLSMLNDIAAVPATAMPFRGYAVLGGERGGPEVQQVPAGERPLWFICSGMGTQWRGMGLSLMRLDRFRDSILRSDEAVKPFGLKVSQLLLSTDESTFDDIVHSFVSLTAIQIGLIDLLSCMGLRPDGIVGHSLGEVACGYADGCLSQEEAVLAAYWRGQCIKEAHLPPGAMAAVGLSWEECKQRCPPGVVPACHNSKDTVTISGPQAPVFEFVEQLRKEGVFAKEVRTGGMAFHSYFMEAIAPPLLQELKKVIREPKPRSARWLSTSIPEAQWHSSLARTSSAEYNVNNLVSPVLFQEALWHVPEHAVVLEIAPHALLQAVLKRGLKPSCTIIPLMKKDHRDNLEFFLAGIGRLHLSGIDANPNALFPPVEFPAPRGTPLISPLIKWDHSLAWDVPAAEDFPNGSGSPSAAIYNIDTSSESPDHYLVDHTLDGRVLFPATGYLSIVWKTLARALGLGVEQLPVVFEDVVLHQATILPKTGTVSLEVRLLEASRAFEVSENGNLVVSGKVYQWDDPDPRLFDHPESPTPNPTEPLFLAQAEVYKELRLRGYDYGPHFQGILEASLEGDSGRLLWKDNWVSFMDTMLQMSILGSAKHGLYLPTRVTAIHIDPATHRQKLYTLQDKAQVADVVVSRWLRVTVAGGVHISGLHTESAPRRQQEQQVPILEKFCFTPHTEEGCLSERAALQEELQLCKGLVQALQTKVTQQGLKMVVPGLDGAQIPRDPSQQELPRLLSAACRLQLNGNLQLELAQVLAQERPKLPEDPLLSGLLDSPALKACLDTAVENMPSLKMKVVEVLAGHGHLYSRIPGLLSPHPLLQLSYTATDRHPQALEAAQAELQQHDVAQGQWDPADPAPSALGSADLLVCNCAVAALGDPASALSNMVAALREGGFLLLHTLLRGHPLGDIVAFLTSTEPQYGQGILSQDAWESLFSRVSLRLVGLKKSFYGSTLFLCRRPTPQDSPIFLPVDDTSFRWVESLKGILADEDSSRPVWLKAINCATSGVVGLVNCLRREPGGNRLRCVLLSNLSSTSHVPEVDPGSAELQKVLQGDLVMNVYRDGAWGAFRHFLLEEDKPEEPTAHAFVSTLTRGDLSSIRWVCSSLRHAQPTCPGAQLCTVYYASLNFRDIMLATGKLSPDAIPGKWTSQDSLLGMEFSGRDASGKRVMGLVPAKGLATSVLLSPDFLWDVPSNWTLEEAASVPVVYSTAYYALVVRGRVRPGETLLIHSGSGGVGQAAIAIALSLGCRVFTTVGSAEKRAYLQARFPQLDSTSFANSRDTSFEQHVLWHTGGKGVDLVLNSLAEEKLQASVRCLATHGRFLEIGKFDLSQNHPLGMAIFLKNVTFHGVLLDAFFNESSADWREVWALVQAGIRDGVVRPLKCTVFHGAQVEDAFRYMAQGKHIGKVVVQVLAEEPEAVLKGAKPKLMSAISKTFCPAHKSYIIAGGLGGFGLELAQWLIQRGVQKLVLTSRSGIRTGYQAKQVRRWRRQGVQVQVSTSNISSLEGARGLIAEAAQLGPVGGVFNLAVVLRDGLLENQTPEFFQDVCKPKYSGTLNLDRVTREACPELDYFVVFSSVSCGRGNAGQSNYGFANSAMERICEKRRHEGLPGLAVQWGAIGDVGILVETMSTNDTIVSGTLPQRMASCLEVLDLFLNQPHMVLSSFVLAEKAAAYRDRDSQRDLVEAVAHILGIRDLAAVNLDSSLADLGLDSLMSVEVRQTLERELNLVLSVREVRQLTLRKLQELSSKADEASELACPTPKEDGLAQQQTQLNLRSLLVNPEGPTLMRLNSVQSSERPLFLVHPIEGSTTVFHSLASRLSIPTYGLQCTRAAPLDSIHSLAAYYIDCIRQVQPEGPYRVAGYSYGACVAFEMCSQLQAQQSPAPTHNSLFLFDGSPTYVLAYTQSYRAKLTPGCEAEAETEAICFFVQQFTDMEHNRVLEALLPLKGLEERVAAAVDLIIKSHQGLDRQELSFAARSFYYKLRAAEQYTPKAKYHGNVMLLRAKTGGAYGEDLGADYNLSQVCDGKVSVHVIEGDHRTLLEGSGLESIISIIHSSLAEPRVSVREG
T6 sequence (P11940 whole entry, the tested form may be a part): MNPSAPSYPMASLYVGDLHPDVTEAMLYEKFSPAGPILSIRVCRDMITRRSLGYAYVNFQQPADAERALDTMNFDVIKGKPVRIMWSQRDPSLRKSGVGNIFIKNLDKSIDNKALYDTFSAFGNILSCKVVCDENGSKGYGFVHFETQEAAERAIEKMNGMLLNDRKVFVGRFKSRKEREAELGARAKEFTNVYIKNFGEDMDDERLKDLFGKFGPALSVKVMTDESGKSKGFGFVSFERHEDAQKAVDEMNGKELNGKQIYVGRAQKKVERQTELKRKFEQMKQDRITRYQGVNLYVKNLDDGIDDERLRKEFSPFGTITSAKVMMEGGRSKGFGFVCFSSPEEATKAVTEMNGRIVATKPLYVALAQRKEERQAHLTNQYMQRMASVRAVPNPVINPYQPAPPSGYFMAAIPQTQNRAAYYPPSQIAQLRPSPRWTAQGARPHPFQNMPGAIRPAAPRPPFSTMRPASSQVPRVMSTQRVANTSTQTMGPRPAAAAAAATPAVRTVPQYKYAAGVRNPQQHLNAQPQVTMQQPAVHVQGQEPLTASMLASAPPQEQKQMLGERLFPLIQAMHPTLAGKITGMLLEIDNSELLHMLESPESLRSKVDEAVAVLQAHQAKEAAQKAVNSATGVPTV
T7 sequence (Q92731 whole entry): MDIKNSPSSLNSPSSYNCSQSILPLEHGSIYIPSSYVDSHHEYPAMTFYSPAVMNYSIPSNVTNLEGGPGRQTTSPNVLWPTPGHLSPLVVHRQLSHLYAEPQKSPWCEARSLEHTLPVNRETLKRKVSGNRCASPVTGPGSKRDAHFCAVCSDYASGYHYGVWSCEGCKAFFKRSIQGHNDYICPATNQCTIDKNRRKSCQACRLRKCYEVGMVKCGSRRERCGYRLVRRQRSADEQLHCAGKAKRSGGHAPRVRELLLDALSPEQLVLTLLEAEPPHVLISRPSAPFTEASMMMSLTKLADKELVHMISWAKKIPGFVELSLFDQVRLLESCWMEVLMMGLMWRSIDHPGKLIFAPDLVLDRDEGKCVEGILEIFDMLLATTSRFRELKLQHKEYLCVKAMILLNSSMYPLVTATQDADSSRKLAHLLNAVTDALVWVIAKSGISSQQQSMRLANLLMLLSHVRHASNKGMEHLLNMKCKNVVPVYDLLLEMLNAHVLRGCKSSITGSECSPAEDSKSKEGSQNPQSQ
Sequence of Nonstructural protein 1 (Q194T2 whole entry): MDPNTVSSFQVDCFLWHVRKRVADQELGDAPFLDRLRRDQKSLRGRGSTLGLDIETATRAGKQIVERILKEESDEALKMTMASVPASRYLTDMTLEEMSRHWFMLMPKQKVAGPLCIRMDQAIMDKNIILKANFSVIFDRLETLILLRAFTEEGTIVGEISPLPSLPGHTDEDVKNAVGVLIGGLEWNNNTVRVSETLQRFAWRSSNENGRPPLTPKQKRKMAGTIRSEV

## COc1ccccc1/C=C1\SC(=O)N(CCC(=O)NCCCn2ccnc2)C1=O
[1]
  AC50: 13.5 µM (active)
BJ [2]
  EC50: > 150 µM (not active)
BJ [3]
  EC50: > 133 µM (inactive)
BJ [4]
  EC50: > 150 µM (not active)
BJ [5]
  EC50: > 150 µM (inconclusive)
[6]
  EC50: > 150 µM (not active)
INS1
  AC50: 5.64 µM (active)

## Cc1cc(C)nc(NC(=O)CSc2nn(-c3ccccc3)c(=S)s2)n1
[7]
  IC50: > 67.5 µM (inactive)
HEK293
  IC50: > 67.5 µM (inactive)

## CC1CCN(c2nc(-c3ccccc3)c(C#N)c(=O)[nH]2)CC1
fMet-Leu-Phe receptor
  Ki: > 66.7 µM (inactive)

## O=C(CSc1nnc(-c2cccnc2)o1)Nc1nccs1
[8]
  AC50: 129 µM (active)
Nonstructural protein 1
  IC50: 10.9 µM (active)

## Clc1ccc(-c2ccc(CNCc3ccccn3)o2)cc1
cells
  IC50: 3.21 µM (active)
[8]
  AC50: 95.9 µM (active)

## Cc1cc(C(=O)N2CCCC(C(=O)c3ccc(Oc4ccccc4)cc3)C2)[nH]n1 (configuration not stated)
Cysteine protease ATG4B
  IC50: 28.3 µM (inactive)
Phospholipase A2
  IC50: 11.9 µM (active)

## COc1ccc2c(c1)C(c1ccc(C)o1)=NNC(c1ccccc1)=N2
Cysteine protease ATG4B
  IC50: 12.9 µM (active)
Phospholipase A2
  IC50: 8.91 µM (active)

## O=S(=O)(c1ccccc1)c1nnn2c1nc(NC1CCN(Cc3ccccc3)CC1)c1ccccc12
[9]
  IC50: 11.5 µM (active)
Fatty acid synthase [10]
  IC50: 1.03 µM (active)
Fatty acid synthase [11]
  IC50: 0.793 µM (active)

## CC(=O)Nc1cccc(C(=O)OCC(=O)Nc2nnc(-c3ccccc3)o2)c1
[8]
  AC50: 96.8 µM (active)

## O=C(NCc1ccc2c(c1)OCO2)c1c(O)nc2sccn2c1=O
[12]
  CC50: > 40 µM (active)
[9]
  IC50: 80 µM (inactive)

## CCCc1ccc(S(=O)(=O)NCCc2ccncc2)cc1
[13]
  AC50: 34.1 µM (active)
[14]
  AC50: 8.02 µM (active)

## Clc1ccc(OCCn2ccnc2)c(Cl)c1
[7]
  IC50: > 67.5 µM (inactive)
HEK293
  IC50: > 67.5 µM (inactive)

## O=C(/C=C/c1ccccc1)N1CCC(Cc2ccccc2)CC1
Beta-galactosidase
  IC50: > 80 µM (inactive)

## COc1cc2c3c(c1)/C(=C1/SC(NC(C)=O)=NC1=O)C(=O)N3C(C)(C)C=C2C
[15]
  IC50: > 66 µM (inactive)
Estrogen receptor beta [16]
  IC50: 96.2 µM (not active)
fMet-Leu-Phe receptor
  Ki: > 66.7 µM (inactive)
[17]
  IC50: > 66 µM (inactive)
Estrogen receptor beta [18]
  IC50: 3.37 µM (active)

## COc1cc(N=Nc2ccc3ccccc3c2)ccc1O
[19]
  CC50: 23.3 µM (active)
[7]
  IC50: > 67.6 µM (inactive)
[1]
  AC50: 2.65 µM (active)
[20]
  AC50: 10.7 µM (active)
HEK293
  IC50: > 67.6 µM (inactive)

## COc1ccccc1N(C(=O)c1ccncc1)c1nc(-c2ccc([N+](=O)[O-])cc2)cs1
[19]
  CC50: 29.6 µM (active)
[21]
  EC50: 0.448 µM (active)
[22]
  EC50: > 60 µM (inconclusive)
Beta-galactosidase
  IC50: > 80 µM (inactive)

## CC(C)(C)c1ccc(OCC(O)CSc2nc[nH]n2)cc1 (configuration not stated)
HT-1080
  EC50: > 50 µM (not active)

## Cc1ccc(S(=O)(=O)N2CCN(C(=O)/C=C/c3ccccc3)CC2)cc1C
Beta-galactosidase
  IC50: > 80 µM (inactive)

## COc1ccc2cnn(-c3ccccc3)c(=O)c2c1OC
fMet-Leu-Phe receptor
  Ki: > 66.7 µM (inactive)

## O=C(COC(=O)c1cccc(O)c1)Nc1nnc(-c2ccccc2)o1
[8]
  AC50: 74.4 µM (active)

## O=C(O)CC(CC(=O)Nc1ccc(F)c(Cl)c1)c1ccc(Cl)cc1Cl (configuration not stated)
[7]
  IC50: > 67.5 µM (inactive)
HEK293
  IC50: > 67.5 µM (inactive)

## CC(C)(C)OC(=O)[C@H](Cc1ccccc1)NC(=O)c1ncn2c1c(O)nc1ccc(Br)cc12
[9]
  IC50: 5.17 µM (active)

## COc1ccc(C(NC(=O)C2CCN(CCOc3ccc(Cl)cc3Cl)CC2)c2cccs2)cc1 (configuration not stated)
Melanocortin receptor 4
  EC50: > 89.2 µM (inactive)

## Cc1cc(C)c2c(=O)n3c(nc2c1)C(Cc1ccccc1)NC(=O)c1cc2ccccc2cc1-3 (configuration not stated)
Beta-galactosidase
  IC50: > 80 µM (inactive)

## CNC(=O)C[C@@H]1CC[C@@H]2[C@H](COc3ccc(NC(=O)Nc4cccc(C)c4)cc3C(=O)N2C)O1
[13]
  AC50: 24.9 µM (active)

## O=C(O)/C=C/c1ccccc1Oc1ccc(Cl)cc1Cl
Cysteine protease ATG4B
  IC50: 11.5 µM (active)
Phospholipase A2
  IC50: 62.7 µM (inactive)

## COc1cccc(/C=N/NC(=O)c2cccs2)c1
[7]
  IC50: > 67.5 µM (inactive)
HEK293
  IC50: > 67.5 µM (inactive)
